The values that follow come from publication PMC6822764, “MitoToxy assay: A novel cell-based method for the assessment of metabolic toxicity in a multiwell plate format using a lactate FRET nanosensor, Laconic” (PLoS ONE, 2019).

The subject of assay [1] is HepG2 cells. The arrangement: method as in Nadanaciva et al., 2012 [55]. Particulars: treatment time 0.03 hours; ref Nadanaciva et al., 2012 [55]; cited from earlier work.
In assay [2] the test system is HepG2 cells. The arrangement: method as in Marroquin et al., 2007 [35]. The following applies: treatment time 24 hours; approximated IC50 directly from plotted data in the original paper; ref Marroquin et al., 2007 [35]; cited from earlier work.
The test system of assay [3] is mitochondrial membrane potential (MMP). Particulars: treatment time 6 hours; ref Li et al., 2014 [50]; read-out: IC50, MMP; cited from earlier work.
Assay [4] concerns primary culture of astrocytes from the mouse cortex expressing Laconic. Description: Single-cell lactate imaging (Laconic) in primary culture of cortical astrocytes. It is filed as cell-based.
Experimental: Animals used for primary cultures were mixed F1 male mice (C57BL/6J × CBA/J), kept in an animal room under SPF conditions at a room temperature of 20 ± 2°C, in a 12/12-h light/dark cycle and with free access to water and food. Mixed cortical cultures of neuronal and glia cells (1 –to 3-day-old neonates) was cultured in Neurobasal medium (Gibco) supplemented with 5 mM glucose and B27. Cells were seeded on petri dishes and superfused with KRH HEPES pH 7.4. The lactate imaging experiments with single-cell resolution were performed using cultured astrocytes at 11–14 days post-dissection. Real time experiments were performed with KRH HEPES bathing solution containing (in mM) 136 NaCl, 3 KCl, 1.25 CaCl2, 1.25 MgCl2, 10 HEPES/Tris and pH 7.2 at 36°C with 300 mOsm, without carbon sources for mitochondrial toxicant experiments and 2 mM glucose and 1 mM lactate for Warburg index determination. Experiments were performed in upright Olympus FV1000 confocal microscope equipped with a 20X water-immersion objective (numerical aperture, 1.0) and a 440 nm solid-state laser.
To plot the data, we used a ratio between mTFP and Venus channels. This ratio is proportional to lactate levels, since its binding to the sensor produced a decrease in FRET efficiency. This ratio was expressed in two formulas described below: NormalizedΔR=R(mTFP/Venus)/R(mTFP/Venus)min
With the aim of testing if this observation occurs in general and if azide induced-lactate accumulation can be reproduced using another mitochondrial toxicant with a different molecular target, we performed single-cell experiments exposing primary culture of astrocytes from the mouse cortex expressing Laconic (Fig 1A) to different mitochondria inhibitors that block the ETC at different levels (Fig 1C). To take advantage of the maximal dynamic range of the lactate FRET sensor the baseline measurements were performed using buffer without carbon sources to force start the experiments with lactate levels below 100 μM.
Each data point is from an average of ten cells from three independent experiments.
Assay [5] relates to HepG2 cells. Further details: method as in Nadanaciva et al., 2012 [55]. The following applies: treatment time 0.03 hours; ref Nadanaciva et al., 2012 [55]; cited from earlier work. The source holds these as a separate data set.
Assay [6] relates to MDA-MB-231 cells stably expressing the FRET lactate indicator Laconic (MitoTox Reporter). Description: MitoToxy assay: toxicity-induced lactate accumulation in MitoTox Reporter cells, 96-well plate reader, with 50 μM pCMBS. The following applies: read-out: IC50 (toxicity-induced lactate accumulation, MitoToxy). It is filed as cell-based. Here is the method:
(§1) MitoTox reporter cell line was cultured in Leibowitz media (Gibco) supplemented with 10% of fetal bovine serum (FBS) at 37°C at atmospheric CO2 levels in a 100 mm petri dish. Once cells reached 100% confluency, they were trypsinized using 5% trypsin (Gibco) and washed in PBS. Viability was determine using trypan blue staining and 10,000 cells were seeded into each well of a 96 well plate. Experiments in 96 well format were performed once cells reached 100% confluency after 6 days, during the incubation media was not replaced. All the plates with signal-to-noise ration below 1.3 for monomeric Teal Fluorescent Protein (mTFP) and Venus channels were discarded. Background signal was determined with KRH buffer without cells. Experiments consisted in washing out the culture media using KRH HEPES buffer containing (mM) 136 NaCl, 3 KCl, 1.25 CaCl2, 1.25 MgCl2, 10 HEPES/Tris and pH 7.2 at 37°C with 300 mOsm. Then 200 μl of KRH HEPES buffer without any carbon sources was added to each well and the baseline was measured (RMIN), then 100 μl of buffer was replaced with mitochondrial toxicant/controls and signal was measured to obtain a stimulated response (RMAX). In experiments were pCMBS was used to block lactate exit, the inhibitor was added simultaneously with the mitochondrial toxicants. Data was collected in triplicated after 5, 10, 30, and 60 minutes of incubation. All the experiments in 96 well plates were performed in an EnVision® multiplate reader (PerkinElmer). Each well was excited at 430 nm and the intensity of mTFP and Venus fluorescence emission were recorded at 485 nm and 528 nm, using a set of filters.
(§2) Where R(mTFP/Venus) min corresponded to the minimal change of mTFP/Venus ratio during the single-cell experiments. Results in 96 well plates experiments were expressed by the ΔR%. This parameter was obtained from the difference between the RMAX and RMIN from the same well (before-after experiment) as follow: ΔR%=(R(mTFP/Venus)max−R(mTFP/Venus)min/R(mTFP/Venus)min)x100

The subject of assay [7] is reactive oxygen species (ROS). The arrangement: method as in Li et al., 2014 [50]. Particulars: treatment time 6 hours; ref Li et al., 2014 [50]; cited from earlier work.
Assay [8] relates to extracellular acidification. Further details: method as in Hynes et al., 2013 [72]. The following applies: treatment time 0.13 hours; ref Hynes et al., 2013 [72]; cited from earlier work.
In a further assay the test system is cell viability. Further details: method as in Li et al., 2014 [50]. The following applies: treatment time 6 hours; ref Li et al., 2014 [50]; cited from earlier work.
A further assay concerns oxygen consumption. The arrangement: method as in Hynes et al., 2013 [72]. The following applies: treatment time 0.13 hours; ref Hynes et al., 2013 [72]; cited from earlier work.
Another assay relates to glutathione (GSH). The arrangement: method as in Li et al., 2014 [50]. The following applies: treatment time 6 hours; ref Li et al., 2014 [50]; cited from earlier work.
Assay [9] relates to clonal MDA-MB-231 cells expressing Laconic. In words: Single-cell lactate imaging of MitoTox Reporter cells. It is filed as cell-based. The following applies: 32 μM rotenone, 16 μM antimycin, 80 μM oligomycin, 10 μM myxothiazol. An excerpt:
To generate a cell system with a high signal-to-noise ratio suitable for standard multiplate readers, we developed a clonal cell line with high levels and homogeneous Laconic expression. To do so, we produced a lentivirus particle to infect and transduce Laconic in MDA-MB-231 cells. From pooled cells with diverse levels of Laconic expression we selected high expression clones through FACS. […] We termed this cell line “MitoTox Reporter”. Exposure of these cells to classical mitochondrial poisons produced a robust increase in the fluorescent signal, indicating acute toxicity-induced lactate accumulation. […] With this evidence in hand, cells were tested in a multi-well plate reader.
Fig 3 Characterization of “MitoTox reporter” cell line. A) Confocal images from FACS selected clonal MDA-MB-231 cells expressing Laconic. Size bars for 20x and 60x represent 100 μm and 10 μm, respectively. Cytosolic lactate accumulation induced by treatment with: B) 32 μM rotenone, C) 16 μM of antimycin, D) 80 μM of oligomycin, and 10 μM myxothiazol. Each trace is the average of ten cells from one representative experiment.

The next assay concerns ATP. The following applies: read-out: IC50, ATP depletion; cited from earlier work.
For assay [10], the system named is MitoTox Reporter cells (MDA-MB-231 expressing Laconic). In words: Pilot screening of 13 compounds with MitoTox Reporter cells, multiplate reader. Particulars: for ΔR% (lactate accumulation): average of 4 replicate wells, Fig 9 legend 30 minutes, 37°C. Format: cell-based. Here is the method: as §1, §2
Multiple comparisons versus control groups (Holm-Sidak method), Overall significance level P < 0,05.
The capability of the assay to identify previously described toxic drugs was explored through a pilot screening assay. We selected 13 compounds from a variety of therapeutic classes to perform a pilot screening assay using MitoTox Reporter cells and a standard multiplate reader. […] To perform the assays, we prepared master stocks for each compound in 0.2% DMSO. Assays were performed with compounds at final concentrations of 1, 5, and 10 μM and the response of MitoTox Reporter cells were measured at 5, 10, 30, and 60 minutes. […] As a negative control we selected a compound with no reported side-effects.

In assay [11] the test system is HepG2 cells. Further details: method as in PMID 22689143. Particulars: Seahorse technology, read-out: Concentration required to change the OCR and ECAR by 50%; cited from earlier work.
Another assay concerns MitoTox reporter cells. The following applies: 32 μM rotenone, 16 μM antimycin, 5 mM azide, 80 μM oligomycin, 10 μM myxothiazol; 5, 10, 30, 60 minutes; 37°C. Here is the method: as §1, with “Experiments consisted in washing out the culture media using KRH HEPES buffer containing (mM) 136 NaCl, 3 KCl, 1.25 CaCl2, 1.25 MgCl2, 10 HEPES/Tris and pH 7.2 at 37°C with 300 mOsm.” left out, “In experiments were pCMBS was used to block lactate exit, the inhibitor was added simultaneously with the mitochondrial toxicants. Data was collected in triplicated after 5, 10, 30, and 60 minutes of incubation.” left out, “filters. […]” for “filters.”

The structures appear in SMILES notation. Several values for one entry are separate records, joined by “and”; a condition that tells them apart may be missing. Equal values may be shown once. Read-outs that look alike come from different tables or passages of the source.

As for `CC[C@H]1/C=C/C=C/C[C@@H](C)[C@H](O)[C@@](C)(O)C(=O)[C@@H](C)[C@H](O)[C@@H](C)C(=O)[C@@H](C)[C@H](O)[C@@H](C)/C=C/C(=O)O[C@@H]2[C@H](C)[C@H](CC1)O[C@]1(CC[C@H](C)[C@H](C[C@@H](C)O)O1)[C@H]2C` [oligomycin], the 50% inhibitory concentration (IC50) in the assay on HepG2 cells [1] is 0.92 µM; with HepG2 cells [2], 0.005 µM; in assay [3], 15.6 µM; in the assay with HepG2 cells [5], 1.1 µM; in assay [6] (Homo sapiens, MDA-MB-231, dose-response, treatment time 0.5 hours (Fig 8 legend: 10 minutes), 37°C), 0.038 µM; in assay [7] it was > 1000 µM. The IC50 in assay [8] is 0.077 µM; in the assay on cell viability it was 182 µM; with oxygen consumption, 0.038 µM; in the assay with glutathione (GSH), 161 µM. Moreover, the “Cytosolic lactate accumulation in astrocytes” value in assay [4] (32 μM rotenone, 16 μM antimycin, 5 mM azide, 80 μM oligomycin, buffer without carbon sources) is “induced an acute cytosolic lactate accumulation”. Also, the “Intracellular lactate levels in MitoTox Reporter cells (single-cell)” value in assay [9] was “acute, fast, and robust increase of intracellular lactate levels”.
In the case of `Cc1c(C)c2c(c(C)c1O)CCC(C)(COc1ccc(CC3SC(=O)NC3=O)cc1)O2` (stereo not drawn) [troglitazone], the IC50 in assay [3] is 176 µM; in the assay with ATP it was 28 µM and 31.4 µM. The “ΔR% (lactate accumulation)” value in assay [10] (5 μM) is listed as “The effect was also detected”; in assay [10] (10 μM), “over 14%”. Moreover, the “Concentration at which toxicity / mitochondrial effects were detected in the pilot screening” value in assay [10] (tested at 1, 5 and 10 μM) worked out at 5 µM. For the same compound, in the assay with HepG2 cells [11], the EC50 was > 100 µM.
For the compound `[N-]=[N+]=[N-].[Na+]` [azide], the “Cytosolic lactate accumulation in astrocytes” value in assay [4] is given as “induced an acute cytosolic lactate accumulation”. Also, the IC50 in assay [6] is 1440 µM. For the same compound, in the assay with MitoTox reporter cells, the “Lactate accumulation (ΔR%) in 96-well plates without pCMBS” value is “declined after 5 minutes”.
